{"source": "PubChem BioAssay (NCI)", "experiment_in_all_cases": "NCI tumour cell line growth inhibition, 48 h", "key": {"[1]": {"system": "UO-31 renal"}, "[2]": {"system": "NCI-H522 lung"}, "[3]": {"system": "OVCAR-4 ovarian"}, "[4]": {"system": "OVCAR-8 ovarian"}, "[5]": {"system": "T-47D breast"}, "[6]": {"system": "HOP-92 NSCLC"}, "[7]": {"system": "DU-145 prostate"}, "[8]": {"system": "SN12C renal"}, "[9]": {"system": "MCF7 breast"}, "[10]": {"system": "A549 NSCLC"}, "[11]": {"system": "HS 578T breast"}, "[12]": {"system": "MDA-N"}, "[13]": {"system": "NCI-H23 lung"}, "[14]": {"system": "HCT-116 colon"}, "[15]": {"system": "COLO 205 colon"}, "[16]": {"system": "A498 renal"}, "[17]": {"system": "BT-549 breast"}, "[18]": {"system": "SF-295 CNS"}, "[19]": {"system": "TK-10 renal"}, "[20]": {"system": "MDA-MB-435"}, "[21]": {"system": "OVCAR-5 ovarian"}, "[22]": {"system": "NCI/ADR-RES ovarian"}, "[23]": {"system": "HCC-2998 colon"}, "[24]": {"system": "NCI-H226 lung"}, "[25]": {"system": "MALME-3M melanoma"}, "[26]": {"system": "U251 CNS"}, "[27]": {"system": "SK-MEL-2 melanoma"}, "[28]": {"system": "CCRF-CEM leukemia"}, "[29]": {"system": "SK-MEL-5 melanoma"}, "[30]": {"system": "RXF 393 renal"}, "[31]": {"system": "LOX IMVI melanoma"}, "[32]": {"system": "NCI-H460 lung"}, "[33]": {"system": "MDA-MB-231 breast"}, "[34]": {"system": "SR leukemia"}, "[35]": {"system": "MOLT-4 leukemia"}, "[36]": {"system": "KM12 colon"}, "[37]": {"system": "HT29 colon"}, "[38]": {"system": "IGROV1 ovarian"}, "[39]": {"system": "SF-539 CNS"}, "[40]": {"system": "HL-60(TB) leukemia"}, "[41]": {"system": "SW-620 colon"}, "[42]": {"system": "UACC-257 melanoma"}, "[43]": {"system": "SF-268 CNS"}, "[44]": {"system": "ACHN renal"}, "[45]": {"system": "HCT-15 colon"}, "[46]": {"system": "M14 melanoma"}, "[47]": {"system": "CAKI-1 renal"}, "[48]": {"system": "786-0 renal"}, "[49]": {"system": "EKVX NSCLC"}, "[50]": {"system": "SNB-75 CNS"}, "[51]": {"system": "SK-MEL-28 melanoma"}, "[52]": {"system": "SNB-19 CNS"}, "[53]": {"system": "PC-3 prostate"}, "[54]": {"system": "HOP-62 NSCLC"}, "[55]": {"system": "UACC-62 melanoma"}, "[56]": {"system": "SK-OV-3 ovarian"}, "[57]": {"system": "K-562 leukemia"}, "[58]": {"system": "RPMI-8226 leukemia"}}, "note": "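Five concentrations, 48 hours, 96-well plates. Definition used: TGI = concentration required for complete inhibition of growth.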"}
{"smiles": "Cn1c2ccccc2n2c(=O)c(-c3ccc(Cl)cc3)nnc12", "values": [{"measurement": "TGI", "setting": "[1]", "result": "> 100", "unit": "µM"}, {"measurement": "TGI", "setting": "[2]", "result": "> 100", "unit": "µM"}, {"measurement": "TGI", "setting": "[3]", "result": "> 100", "unit": "µM"}, {"measurement": "TGI", "setting": "[4]", "result": "> 100", "unit": "µM"}, {"measurement": "TGI", "setting": "[5]", "result": "> 100", "unit": "µM"}, {"measurement": "TGI", "setting": "[6]", "result": "> 100", "unit": "µM"}, {"measurement": "TGI", "setting": "[7]", "result": "> 100", "unit": "µM"}, {"measurement": "TGI", "setting": "[8]", "result": "> 100", "unit": "µM"}, {"measurement": "TGI", "setting": "[9]", "result": "> 100", "unit": "µM"}, {"measurement": "TGI", "setting": "[10]", "result": "> 100", "unit": "µM"}, {"measurement": "TGI", "setting": "[11]", "result": "> 100", "unit": "µM"}, {"measurement": "TGI", "setting": "[12]", "result": "> 100", "unit": "µM"}, {"measurement": "TGI", "setting": "[13]", "result": "> 100", "unit": "µM"}, {"measurement": "TGI", "setting": "[14]", "result": "> 100", "unit": "µM"}, {"measurement": "TGI", "setting": "[15]", "result": "> 100", "unit": "µM"}, {"measurement": "TGI", "setting": "[16]", "result": "> 100", "unit": "µM"}, {"measurement": "TGI", "setting": "[17]", "result": "> 100", "unit": "µM"}, {"measurement": "TGI", "setting": "[18]", "result": "> 100", "unit": "µM"}, {"measurement": "TGI", "setting": "[19]", "result": "> 100", "unit": "µM"}, {"measurement": "TGI", "setting": "[20]", "result": "> 100", "unit": "µM"}, {"measurement": "TGI", "setting": "[21]", "result": "> 100", "unit": "µM"}, {"measurement": "TGI", "setting": "[22]", "result": "> 100", "unit": "µM"}, {"measurement": "TGI", "setting": "[23]", "result": "> 100", "unit": "µM"}, {"measurement": "TGI", "setting": "[24]", "result": "> 100", "unit": "µM"}, {"measurement": "TGI", "setting": "[25]", "result": "> 100", "unit": "µM"}, {"measurement": "TGI", "setting": "[26]", "result": "> 100", "unit": "µM"}, {"measurement": "TGI", "setting": "[27]", "result": "> 100", "unit": "µM"}, {"measurement": "TGI", "setting": "[28]", "result": "> 100", "unit": "µM"}, {"measurement": "TGI", "setting": "[29]", "result": "> 100", "unit": "µM"}, {"measurement": "TGI", "setting": "[30]", "result": "> 100", "unit": "µM"}, {"measurement": "TGI", "setting": "[31]", "result": "> 100", "unit": "µM"}, {"measurement": "TGI", "setting": "[32]", "result": "> 100", "unit": "µM"}, {"measurement": "TGI", "setting": "[33]", "result": "> 100", "unit": "µM"}, {"measurement": "TGI", "setting": "[34]", "result": "> 100", "unit": "µM"}, {"measurement": "TGI", "setting": "[35]", "result": "> 100", "unit": "µM"}, {"measurement": "TGI", "setting": "[36]", "result": "> 100", "unit": "µM"}, {"measurement": "TGI", "setting": "[37]", "result": "> 100", "unit": "µM"}, {"measurement": "TGI", "setting": "[38]", "result": "> 100", "unit": "µM"}, {"measurement": "TGI", "setting": "[39]", "result": "> 100", "unit": "µM"}, {"measurement": "TGI", "setting": "[40]", "result": "> 100", "unit": "µM"}, {"measurement": "TGI", "setting": "[41]", "result": "> 100", "unit": "µM"}, {"measurement": "TGI", "setting": "[42]", "result": "> 100", "unit": "µM"}, {"measurement": "TGI", "setting": "[43]", "result": "> 100", "unit": "µM"}, {"measurement": "TGI", "setting": "[44]", "result": "> 100", "unit": "µM"}, {"measurement": "TGI", "setting": "[45]", "result": "> 100", "unit": "µM"}, {"measurement": "TGI", "setting": "[46]", "result": "> 100", "unit": "µM"}, {"measurement": "TGI", "setting": "[47]", "result": "> 100", "unit": "µM"}, {"measurement": "TGI", "setting": "[48]", "result": "> 100", "unit": "µM"}, {"measurement": "TGI", "setting": "[49]", "result": "> 100", "unit": "µM"}, {"measurement": "TGI", "setting": "[50]", "result": "> 100", "unit": "µM"}, {"measurement": "TGI", "setting": "[51]", "result": "> 100", "unit": "µM"}, {"measurement": "TGI", "setting": "[52]", "result": "> 100", "unit": "µM"}]}
{"smiles": "O=C1CC(Nc2ccccc2)c2c(Cl)sc(Cl)c21", "note": "(stereo not given)", "values": [{"measurement": "TGI", "setting": "[1]", "result": 2.57, "unit": "µM"}, {"measurement": "TGI", "setting": "[2]", "result": 0.315, "unit": "µM"}, {"measurement": "TGI", "setting": "[3]", "result": 4.21, "unit": "µM"}, {"measurement": "TGI", "setting": "[5]", "result": "> 20", "unit": "µM"}, {"measurement": "TGI", "setting": "[6]", "result": 3.13, "unit": "µM"}, {"measurement": "TGI", "setting": "[7]", "result": 3, "unit": "µM"}, {"measurement": "TGI", "setting": "[53]", "result": 3.06, "unit": "µM"}, {"measurement": "TGI", "setting": "[8]", "result": 2.66, "unit": "µM"}, {"measurement": "TGI", "setting": "[54]", "result": 8.1, "unit": "µM"}, {"measurement": "TGI", "setting": "[9]", "result": 5.21, "unit": "µM"}, {"measurement": "TGI", "setting": "[10]", "result": 6, "unit": "µM"}, {"measurement": "TGI", "setting": "[11]", "result": "> 100", "unit": "µM"}, {"measurement": "TGI", "setting": "[12]", "result": 3.33, "unit": "µM"}, {"measurement": "TGI", "setting": "[13]", "result": 3.75, "unit": "µM"}, {"measurement": "TGI", "setting": "[55]", "result": 2.69, "unit": "µM"}, {"measurement": "TGI", "setting": "[14]", "result": 2.5, "unit": "µM"}, {"measurement": "TGI", "setting": "[15]", "result": 2.68, "unit": "µM"}, {"measurement": "TGI", "setting": "[16]", "result": 6.21, "unit": "µM"}, {"measurement": "TGI", "setting": "[17]", "result": 4.36, "unit": "µM"}, {"measurement": "TGI", "setting": "[18]", "result": 19.5, "unit": "µM"}, {"measurement": "TGI", "setting": "[19]", "result": 3.26, "unit": "µM"}, {"measurement": "TGI", "setting": "[20]", "result": 3.17, "unit": "µM"}, {"measurement": "TGI", "setting": "[21]", "result": 6.23, "unit": "µM"}, {"measurement": "TGI", "setting": "[22]", "result": 6.44, "unit": "µM"}, {"measurement": "TGI", "setting": "[23]", "result": 3.39, "unit": "µM"}, {"measurement": "TGI", "setting": "[24]", "result": 24, "unit": "µM"}, {"measurement": "TGI", "setting": "[25]", "result": 2.83, "unit": "µM"}, {"measurement": "TGI", "setting": "[56]", "result": 26.3, "unit": "µM"}, {"measurement": "TGI", "setting": "[26]", "result": 3.32, "unit": "µM"}, {"measurement": "TGI", "setting": "[27]", "result": 4.37, "unit": "µM"}, {"measurement": "TGI", "setting": "[28]", "result": 0.442, "unit": "µM"}, {"measurement": "TGI", "setting": "[29]", "result": 16.8, "unit": "µM"}, {"measurement": "TGI", "setting": "[31]", "result": 2.09, "unit": "µM"}, {"measurement": "TGI", "setting": "[32]", "result": 24.6, "unit": "µM"}, {"measurement": "TGI", "setting": "[33]", "result": 3.42, "unit": "µM"}, {"measurement": "TGI", "setting": "[35]", "result": 5.18, "unit": "µM"}, {"measurement": "TGI", "setting": "[36]", "result": 1.94, "unit": "µM"}, {"measurement": "TGI", "setting": "[37]", "result": 3.92, "unit": "µM"}, {"measurement": "TGI", "setting": "[38]", "result": 3.44, "unit": "µM"}, {"measurement": "TGI", "setting": "[39]", "result": 2.24, "unit": "µM"}, {"measurement": "TGI", "setting": "[40]", "result": 1.36, "unit": "µM"}, {"measurement": "TGI", "setting": "[42]", "result": 3.86, "unit": "µM"}, {"measurement": "TGI", "setting": "[44]", "result": 2.41, "unit": "µM"}, {"measurement": "TGI", "setting": "[45]", "result": 2.36, "unit": "µM"}, {"measurement": "TGI", "setting": "[46]", "result": 3.4, "unit": "µM"}, {"measurement": "TGI", "setting": "[57]", "result": "> 100", "unit": "µM"}, {"measurement": "TGI", "setting": "[47]", "result": 1.36, "unit": "µM"}, {"measurement": "TGI", "setting": "[48]", "result": 0.784, "unit": "µM"}, {"measurement": "TGI", "setting": "[58]", "result": 0.0461, "unit": "µM"}, {"measurement": "TGI", "setting": "[49]", "result": 3.4, "unit": "µM"}, {"measurement": "TGI", "setting": "[50]", "result": 4.52, "unit": "µM"}, {"measurement": "TGI", "setting": "[51]", "result": 3.54, "unit": "µM"}, {"measurement": "TGI", "setting": "[52]", "result": 20.5, "unit": "µM"}]}
